Test results published in US12129246B1, “Hydroquinazoline derivatives for the treatment of a disease or disorder” (Novartis AG, priority 2023, dated 2024).

Target: T1, human NPR1 (Homo sapiens, UniProt P16066)
T1 construct: host or cells: CHO-K1
T1 sequence (P16066 33-1061): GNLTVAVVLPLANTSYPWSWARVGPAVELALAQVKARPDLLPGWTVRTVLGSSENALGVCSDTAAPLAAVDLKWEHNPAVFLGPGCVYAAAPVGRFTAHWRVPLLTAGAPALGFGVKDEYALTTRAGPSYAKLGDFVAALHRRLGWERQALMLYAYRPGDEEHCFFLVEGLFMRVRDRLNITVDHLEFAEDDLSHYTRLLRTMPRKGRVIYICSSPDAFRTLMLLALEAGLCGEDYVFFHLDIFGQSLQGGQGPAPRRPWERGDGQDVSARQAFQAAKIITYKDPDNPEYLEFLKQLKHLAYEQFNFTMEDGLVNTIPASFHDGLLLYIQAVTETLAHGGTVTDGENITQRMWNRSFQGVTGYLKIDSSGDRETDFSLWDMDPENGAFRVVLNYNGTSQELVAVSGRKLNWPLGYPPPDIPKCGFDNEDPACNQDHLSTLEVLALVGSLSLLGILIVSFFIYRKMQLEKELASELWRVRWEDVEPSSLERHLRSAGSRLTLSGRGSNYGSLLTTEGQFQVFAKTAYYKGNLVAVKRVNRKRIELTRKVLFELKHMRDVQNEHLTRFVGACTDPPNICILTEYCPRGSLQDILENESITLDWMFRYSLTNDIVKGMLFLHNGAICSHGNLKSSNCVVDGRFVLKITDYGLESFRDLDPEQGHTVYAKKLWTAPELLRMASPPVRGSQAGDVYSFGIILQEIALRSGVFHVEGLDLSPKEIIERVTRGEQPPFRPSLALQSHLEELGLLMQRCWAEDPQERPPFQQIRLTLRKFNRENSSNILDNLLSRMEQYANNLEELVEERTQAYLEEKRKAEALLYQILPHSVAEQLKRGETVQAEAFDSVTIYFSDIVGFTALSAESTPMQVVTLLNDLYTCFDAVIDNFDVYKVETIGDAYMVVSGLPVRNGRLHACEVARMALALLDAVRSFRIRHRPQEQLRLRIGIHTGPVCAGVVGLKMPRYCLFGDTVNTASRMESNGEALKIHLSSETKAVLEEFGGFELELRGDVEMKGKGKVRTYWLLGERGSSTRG
Test: Cellular cGMP production assay, human NPR1 expressing CHO-K1 cells (CisBio HTRF)
Format: cell-based
Conditions: for AC50: cGMP production, 30 min at 37° C., 12-point dose-response from 30 μM; for Human NPR1 Amax (% of ANP): maximum cGMP production as percentage of the maximum cGMP produced with ANP
Procedure: Cellular cGMP is a major second messenger that mediates cell activities and is synthesized by activated NPR1 triggered by binding of the natural ligand ANP. […] The assay was performed according to manufacturer's instructions with minor deviations. […] All compound stocks were diluted in PBS+0.1% BSA at 2-fold the final assay concentration. After addition of 10 μL/well of assay buffer (PBS+0.1% BSA+1 mM IBMX) and 10 μL/well of the compounds in different concentrations (12-point dose-response with 3-fold dilutions from a top concentration of 30 μM), the plate was incubated for 30 min at 37° C. to allow for cGMP production. In parallel, a standard curve using a calibrator (contained in the kit) was generated. The cells were lysed and a mix of cGMP-d2 and anti-cGMP-cryptate was added and incubated for 1 h at room temperature. The readout was performed using an Envision plate reader (PerkinElmer) with an excitation wavelength of 317 nm and an emission wavelength of 665 nm. cGMP concentration (Delta F [° %]) was calculated according to the following formulae: […]

SMILES	AC50 [nM]	Human NPR1 Amax (% of ANP)
CC[C@H]([C@H]1CC[C@H](C(=O)O)CC1)N(C)c1nc2c(c(N[C@@H](CN3CCC[C@H](C)C3)c3cn(C)nc3F)n1)C[C@H](c1ccccc1)CC2 (stereo in doubt) [Compound 185, (1R,4r)-4-((R)-1-(((R)-4-(((S)-1-(3-fluoro-1-methyl-1H-pyrazol-4-yl)-2-((S)-3-methylpiperidin-1-yl)ethyl)amino)-6-phenyl-5,6,7,8-tetrahydroquinazolin-2-yl)(methyl)amino)propyl)cyclohexane-1-carboxylic acid]	201	98.01 % of ANP
CC[C@@H](Nc1nc2c(c(N[C@@H](CN3CCCC(CF)C3)c3cnn(C)c3)n1)C[C@H](c1cccc(F)c1)CC2)[C@H]1CC[C@H](C(=O)O)CC1 (stereo partly drawn) [Compound 175, (1R,4r)-4-((1R)-1-(((6R)-4-(((1R)-2-(3-(fluoromethyl)piperidin-1-yl)-1-(1-methyl-1H-pyrazol-4-yl)ethyl)amino)-6-(3-fluorophenyl)-5,6,7,8-tetrahydroquinazolin-2-yl)amino)propyl)cyclohexane-1-carboxylic acid]	89	109.91 % of ANP
CC[C@H]([C@H]1CC[C@H](C(=O)O)CC1)N(C)c1nc2c(c(N[C@@H](CN3CCC[C@H]4C[C@H]43)c3cnn(C)c3)n1)C[C@H](c1ccccc1)CC2 [Compound 176, (1R,4r)-4-((R)-1-(((R)-4-(((R)-2-((1R,6S)-2-azabicyclo[4.1.0]heptan-2-yl)-1-(1-methyl-1H-pyrazol-4-yl)ethyl)amino)-6-phenyl-5,6,7,8-tetrahydroquinazolin-2-yl)(methyl)amino)propyl)cyclohexane-1-carboxylic acid]	359	107.70 % of ANP
CC[C@H]([C@H]1CC[C@H](C(=O)O)CC1)N(C)c1nc2c(c(N[C@@H](CN3CCC[C@@H]4C[C@@H]43)c3cnn(C)c3)n1)C[C@H](c1ccccc1)CC2 [Compound 177, (1R,4r)-4-((R)-1-(((R)-4-(((R)-2-((1S,6R)-2-azabicyclo[4.1.0]heptan-2-yl)-1-(1-methyl-1H-pyrazol-4-yl)ethyl)amino)-6-phenyl-5,6,7,8-tetrahydroquinazolin-2-yl)(methyl)amino)propyl)cyclohexane-1-carboxylic acid]	488	107.75 % of ANP
CC[C@H]([C@H]1CC[C@H](C(=O)O)CC1)N(C)c1nc2c(c(N[C@@H](CN3CCC[C@](O)(CC)C3)c3cnn(C)c3)n1)C[C@H](c1ccccc1)CC2 [Compound 178, (1R,4r)-4-((R)-1-(((R)-4-(((R)-2-((R)-3-ethyl-3-hydroxypiperidin-1-yl)-1-(1-methyl-1H-pyrazol-4-yl)ethyl)amino)-6-phenyl-5,6,7,8-tetrahydroquinazolin-2-yl)(methyl)amino)propyl)cyclohexane-1-carboxylic acid]	362	112.78 % of ANP
CC[C@H]([C@H]1CC[C@H](C(=O)O)CC1)N(C)c1nc2c(c(N[C@@H](CN3CC[C@@H](O)[C@H](C)C3)c3cnn(C)c3)n1)C[C@H](c1ccccc1)CC2 [Compound 179, (1R,4r)-4-((R)-1-(((R)-4-(((R)-2-((3R,4R)-4-hydroxy-3-methylpiperidin-1-yl)-1-(1-methyl-1H-pyrazol-4-yl)ethyl)amino)-6-phenyl-5,6,7,8-tetrahydroquinazolin-2-yl)(methyl)amino)propyl)cyclohexane-1-carboxylic acid]	2710	97.72 % of ANP
CC[C@H]([C@H]1CC[C@H](C(=O)O)CC1)N(C)c1nc2c(c(N[C@@H](CN3CCCC4(CC4)C3)c3cnn(C)c3)n1)C[C@H](c1ccccc1)CC2 [Compound 180, (1R,4r)-4-((R)-1-(methyl((R)-4-(((R)-1-(1-methyl-1H-pyrazol-4-yl)-2-(5-azaspiro[2.5]octan-5-yl)ethyl)amino)-6-phenyl-5,6,7,8-tetrahydroquinazolin-2-yl)amino)propyl)cyclohexane-1-carboxylic acid]	465	86.52 % of ANP
CC[C@H]([C@H]1CC[C@H](C(=O)O)CC1)N(C)c1nc2c(c(N[C@@H](CN3CC[C@@H](OC)C3)c3cnn(C)c3)n1)C[C@H](c1ccccc1)CC2 [Compound 181, (1R,4r)-4-((R)-1-(((R)-4-(((R)-2-((R)-3-methoxypyrrolidin-1-yl)-1-(1-methyl-1H-pyrazol-4-yl)ethyl)amino)-6-phenyl-5,6,7,8-tetrahydroquinazolin-2-yl)(methyl)amino)propyl)cyclohexane-1-carboxylic acid]	1810	101.57 % of ANP
CC[C@H]([C@H]1CC[C@H](C(=O)O)CC1)N(C)c1nc2c(c(N[C@@H](CN3CCC[C@@](C)(O)C3)c3cnn(C)c3)n1)C[C@H](c1ccccc1)CC2 [Compound 182, (1R,4r)-4-((R)-1-(((R)-4-(((R)-2-((R)-3-hydroxy-3-methylpiperidin-1-yl)-1-(1-methyl-1H-pyrazol-4-yl)ethyl)amino)-6-phenyl-5,6,7,8-tetrahydroquinazolin-2-yl)(methyl)amino)propyl)cyclohexane-1-carboxylic acid]	250	110.06 % of ANP
CC[C@H]([C@H]1CC[C@H](C(=O)O)CC1)N(C)c1nc2c(c(N[C@@H](CN3C[C@H](C)C[C@@H](OC)C3)c3cnn(C)c3)n1)C[C@H](c1ccccc1)CC2 [Compound 183, (1R,4r)-4-((R)-1-(((R)-4-(((R)-2-((3R,5R)-3-methoxy-5-methylpiperidin-1-yl)-1-(1-methyl-1H-pyrazol-4-yl)ethyl)amino)-6-phenyl-5,6,7,8-tetrahydroquinazolin-2-yl)(methyl)amino)propyl)cyclohexane-1-carboxylic acid]	380	98.57 % of ANP
CC[C@H]([C@H]1CC[C@H](C(=O)O)CC1)N(C)c1nc2c(c(N[C@@H](CN3C[C@@H](C)C[C@H](OC)C3)c3cnn(C)c3)n1)C[C@H](c1ccccc1)CC2 [Compound 184, (1R,4r)-4-((R)-1-(((R)-4-(((R)-2-((3S,5S)-3-methoxy-5-methylpiperidin-1-yl)-1-(1-methyl-1H-pyrazol-4-yl)ethyl)amino)-6-phenyl-5,6,7,8-tetrahydroquinazolin-2-yl)(methyl)amino)propyl)cyclohexane-1-carboxylic acid]	940	103.67 % of ANP
CC[C@H]([C@H]1CC[C@H](C(=O)O)CC1)N(C)c1nc2c(c(N[C@@H](CN3CCC[C@](C)(O)C3)c3cnn(C)c3)n1)C[C@H](c1ccccc1)CC2 [Compound 186, (1R,4r)-4-((R)-1-(((R)-4-(((R)-2-((S)-3-hydroxy-3-methylpiperidin-1-yl)-1-(1-methyl-1H-pyrazol-4-yl)ethyl)amino)-6-phenyl-5,6,7,8-tetrahydroquinazolin-2-yl)(methyl)amino)propyl)cyclohexane-1-carboxylic acid]	406	110.66 % of ANP
